Laboratory results reported in US7615643B2 (SmithKline Beecham Corporation, priority 2006, dated 2009).

Molecular target: T1, PLK1 (Homo sapiens, UniProt P53350)
T1 construct: PLK kinase domain (amino acids 21-346 preceded by MKKGHHHHHHD); made in house; host or cells: baculovirus infected T. ni cells
Test: Assay for inhibition of PLK1 (SPA kinase assay)
Assay type: biochemical
Details: 1 μM ATP, 2 nM PLK1 kinase domain
Description: I. Assay for Inhibition of PLK1
A. Preparation of 6× N-terminal His-tagged PLK Kinase Domain
6× N-terminal His-tagged PLK kinase domain (amino acids 21-346 preceded by MKKGHHHHHHD) SEQ ID: No. 1. was prepared from baculovirus infected T. ni cells under polyhedrin promoter control. All procedures were performed at 4° C. Cells were lysed In 50 mM HEPES, 200 mM NaCl, 50 mM imidazole, 5% glycerol; pH 7.5. The homogenate was centrifuged at 14K rpm in a SLA-1500 rotor for 1 hr and the supernatant filtered through a 1.2 micron filter. The supernatant was loaded onto a Nickel chelating Sepharose (Amersham Pharmacia) column and washed with lysis buffer. Protein was eluted using 20%, 30% and 100% buffer B steps where buffer B was 50 mM HEPES, 200 mM NaCl, 300 mM imidazole, 5% glycerol; pH 7.5. Fractions containing PLK were determined by SDS-PAGE. Fractions containing PLK were diluted five-fold with 50 mM HEPES, 1 mM DTT, 5% glycerol; pH 7.5, then loaded on an SP Sepharose (Amersham Pharmacia) column. After washing the column with 50 mM HEPES, 1 mM DTT, 5% glycerol; pH 7.5, PLK was step eluted with 50 mM HEPES, 1 mM DTT, 500 mM NaCl; 5% glycerol; pH 7.5. PLK was concentrated using a 10 kDa molecular weight cutoff membrane and then loaded onto a Superdex 200 gel filtration (Amersham Pharmacia) column equilibrated in 25 mM HEPES, 1 mM DTT, 500 mM NaCl, 5% glycerol; pH 7.5. Fractions containing PLK were determined by SDS-PAGE. PLK was pooled, aliquoted and stored at −80° C. Samples were quality controlled using mass spectrometry, N-terminal sequencing and amino acid analysis.
B. Enzyme Activity +/− Inhibitors was Determined as Follows:
All measurements were obtained under conditions where signal production increased linearly with time and enzyme. Test compounds were added to white 384-well assay plates (0.1 μL for 10 μL and some 20 μL assays, 1 μL for some 20 μL assays) at variable known concentrations in 100% DMSO. DMSO (1-5% final, as appropriate) and EDTA (65 mM in reaction) were used as controls. Reaction Mix was prepared as follows at 22° C.: • 25 mM HEPES, pH 7.2 • 15 mM MgCl2 • 1 μM ATP • 0.05 μCi/well ^33P-γ ATP (10 Ci/mMol) • 1 μM substrate peptide (Biotin-Ahx-SFNDTLDFD) SEQ ID:No. 2. • 0.15 mg/mL BSA • 1 mM DTT • 2 nM PLK1 kinase domain (added last)
Reaction Mix (10 or 20 μL) was quickly added to each well immediately following addition of enzyme via automated liquid handlers and incubated 1-1.5 h at 22° C. The 20 μL enzymatic reactions were stopped with 50 μL of stop mix (50 mM EDTA, 4.0 mg/mL Streptavidin SPA beads in Standard Dulbecco's PBS (without Mg^2+ and Ca^2+), 50 μM ATP) per well. The 10 μL reactions were stopped with 10 μL of stop mix (50 mM EDTA, 3.0 mg/mL Streptavidin-coupled SPA imaging Beads (“LeadSeeker”) in Standard Dulbecco's PBS (without Mg^2+ and Ca^2+), 50 μM ATP) per well. Plates were sealed with clear plastic seals, spun at 500×g for 1 min or settled overnight, and counted in Packard TopCount for 30 seconds/well (regular SPA) or imaged using a Viewlux imager (LeadSeeker SPA). Signal above background (EDTA controls) was converted to percent Inhibition relative to that obtained in control (DMSO-only) wells.

T1 sequence (P53350 21-346): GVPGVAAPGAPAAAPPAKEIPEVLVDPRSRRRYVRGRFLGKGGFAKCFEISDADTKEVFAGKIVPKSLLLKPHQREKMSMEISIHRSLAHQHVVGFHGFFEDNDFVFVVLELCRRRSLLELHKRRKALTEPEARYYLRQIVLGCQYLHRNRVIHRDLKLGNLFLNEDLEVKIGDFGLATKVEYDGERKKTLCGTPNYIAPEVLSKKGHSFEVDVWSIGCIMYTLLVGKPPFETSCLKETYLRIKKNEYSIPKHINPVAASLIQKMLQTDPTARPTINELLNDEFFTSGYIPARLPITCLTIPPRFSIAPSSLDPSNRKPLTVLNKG

SMILES | PLK1 pIC50
C[C@@H](Oc1cc(-n2cnc3ccc(S(C)(=O)=O)cc32)sc1C(N)=O)c1cccc(OC2CCNCC2)c1Cl [Example 60, 3-({(1R)-1-[2-chloro-3-(4-piperidineloxy)phenyl]ethyl}oxy)-5-[6-(methylsulfonyl)-1H-benzimidazol-1-yl]-2-thiophenecarboxamide] | +++ (pIC50>7)

Same assay, conditions: 1 μM ATP, 2 nM PLK1 kinase domain, read-out: PLK1 pIC50 (converted)

SMILES | IC50 [nM]
C[C@@H](Oc1cc(-n2cnc3cc(Cl)ccc32)sc1C(N)=O)c1cccc(OCCN2CCOCC2)c1Cl [Example 26, 5-(5-Chloro-1H-benzimidazol-1-yl)-3-{[(1R)-1-(2-chloro-3-{[2-(4-morpholinyl)ethyl]oxy}phenyl)ethyl]oxy}-2-thiophenecarboxamide] | < 100
C[C@@H](Oc1cc(-n2cnc3cc(-c4cccnc4)ccc32)sc1C(N)=O)c1cccc(OC2CCNCC2)c1Cl [Example 12, 3-({(1R)-1-[2-chloro-3-(4-piperidinyloxy)phenyl]ethyl}oxy)-5-[5-(pyridinyl)-1H-benzimidazol-1-yl]-2-thiophenecarboxamide] | < 100
C[C@@H](Oc1cc(-n2cnc3ccc(CS(C)(=O)=O)cc32)sc1C(N)=O)c1cccc(OCC2CCCN2C)c1Cl (stereo partly drawn) [Example 57, 3-({(1R)-1-[2-Chloro-3-({[(2S)-1-methyl-2-pyrrolidinyl]metliyl}oxy)phenyl]ethyl}oxy)-5-{6-[(methylsulfonyl)methyl]-1H-benzimidazol-1-yl}-2-thiophenecarboxamide] | < 100
CC(Oc1cc(-n2cnc3cc(-c4cnn(C)c4)ccc32)sc1C(N)=O)c1cccc(OC2CCNCC2)c1F (racemic) [Example 75, (+/−)-3-({1-[2-Fluoro-3-(4-piperidinyloxy)phenyl]ethyl}oxy)-5-[5-(1-methyl-1H-pyrazol-4-yl)-1H-benzimidazol-1-yl]-2-thiophenecarboxamide] | < 100
C[C@@H](Oc1cc(-n2cnc3cc(Cl)ccc32)sc1C(N)=O)c1cccc(OC2CCN(CCO)CC2)c1Cl [Example 20, 5-(5-Chloro-1H-benzimidazol-1-yl)-3-{[(1R)-1-(2-chloro-3-{[1-(2-hydroxyethyl)-4-piperidinyl]oxy}phenyl)ethyl]oxy}-2-thiophenecarboxamide] | < 100
CC(Oc1cc(-n2cnc3cc(-c4cnn(C)c4)ccc32)sc1C(N)=O)c1cc(OC2CCNCC2)ccn1 (centres unmarked) [Example 85, 5-[5-(1-Methyl-1H-pyrazol-4-yl)-1H-benzimidazol-1-yl]-3-({1-[4-(4-piperidinyloxy)-2-pyridinyl]ethyl}oxy)-2-thiophenecarboxamide] | < 100
CC(Oc1cc(-n2cnc3cc(-c4cnn(C)c4)ccc32)sc1C(N)=O)c1ccnc(OC2CCNCC2)n1 (racemic) [Example 77, (+/−)-5-[5-(1-Methyl-1H -pyrazol-4-yl)-1H-benzimidazol-1-yl]-3-({1-[2-(4-piperidinyloxy)-4-pyrimidinyl]ethyl}oxy)-2-thiophenecarboxamide] | 100 to 1000
C[C@@H](Oc1cc(-n2cnc3cc(-c4cnn(C)c4)ccc32)sc1C(N)=O)c1cccc(OCC2CCN(C(=O)OC(C)(C)C)CC2)c1Cl [Example 43, 1,1-Dimethylethyl 4-[({3-[(1R)-1-({2-(aminocarbonyl)-5-[5-(1-methyl-1H-pyrazol-4-yl)-1H-benzimidazol-1-yl]-3-thienyl}oxy)ethyl]-2-chlorophenyl}oxy)methyl]-1-piperidinecarboxylate] | 100 to 1000
CC(Oc1cc(-n2cnc3cc(-c4cnn(C)c4)ccc32)sc1C(N)=O)c1ccnc(OC2CCN(C)CC2)n1 (racemic) [Example 78, (+/−)-3-[(1-{2-[(1-methyl-4-piperidinyl)oxy]-4-pyrimidinyl}ethyl)oxy]-5-[5-(1-methyl-1H-pyrazol-4-yl)-1H-benzimidazol-1-yl]-2-thiophenecarboxamide] | 100 to 1000
CC(Oc1cc(-n2cnc3cc(-c4cnn(C)c4)ccc32)sc1C(N)=O)c1cccc(OC2CCN(C)CC2)c1F (racemic) [Example 76, (+/−)-3-[(1-{2-Fluoro-3-[(1-methyl-4-piperidinyl)oxy]phenyl}ethyl)oxy]-5-[5-(1-methyl-1H-pyrazol-4-yl)-1H-benzimidazol-1-yl]-2-thiophenecarboxamide] | < 100
CCN1CCC(Oc2cccc([C@@H](C)Oc3cc(-n4cnc5cc(Cl)ccc54)sc3C(N)=O)c2Cl)CC1 [Example 19, 5-(5-Chloro-1H-benzimidazol-1-yl)-3-[((1R)-1-{2-chloro-3-[(1-ethyl-4-piperidinyl)oxy]phenyl}ethyl)oxy]-2-thiophenecarboxamide] | < 100
C[C@@H](Oc1cc(-n2cnc3cc(-c4cccnc4)ccc32)sc1C(N)=O)c1cccc(OC2CCN(C)CC2)c1Cl [Example 11, 3-[((1R)-1-{2-chloro-3-[(1-methyl-4-piperidinyl)oxy]pheny}ethyl)oxy]-5-[5-(3-pyridinyl)-1H-benzimidazol-1-yl]-2-thiopnenecarboxamide] | < 100
C[C@@H](Oc1cc(-n2cnc3ccccc32)sc1C(N)=O)c1cccc(OC2CCN(C)CC2)c1Cl [Example 13, 5-(1H-benzimidazol-1-yl)-3-[((1R)-1-{2-chloro-3-[(1-methyl-4-piperidinyl)gxy]phenyl}ethyl)oxy]-2-thiophenecarboxamide] | < 100
C[C@@H](Oc1cc(-n2cnc3cc(-c4cnn(C)c4)ccc32)sc1C(N)=O)c1cccc(OC2CCN(C(=O)OC(C)(C)C)CC2)c1Cl [Example 46, 1,1-Dimethylethyl 4-({3-[(1R)-1-({2-(aminocarbonyl)-5-[5-(1-methyl-1H-pyrazol-4-yl)-1H-benzimidazol-1-yl]-3-thienyl}oxy)ethyl]-2-chlorophenyl}oxy)-1-piperidinecarboxylate] | < 100
C[C@@H](Oc1cc(-n2cnc3cc(-c4cnn(C)c4)ccc32)sc1C(N)=O)c1cccc(OC2CCNCC2)c1Cl [Example 47, 3-({(1R)-1-[2-Chloro-3-(4-piperidinyloxy)phenyl]ethyl}oxy)-5-[5-(1-methyl-1H-pyrazol-4-yl)-1H-benzimidazol-1-yl]-2-thiophenecarboxamide] | < 100
C[C@@H](Oc1cc(-n2cnc3cc(-c4cnn(C)c4)ccc32)sc1C(N)=O)c1ccc(F)c(OC2CCNCC2)c1Cl [Example 33, 3-({(1R)-1-[2-Chloro-4-fluoro-3-(4-piperidinyloxy)phenyl]ethyl}oxy)-5-[5-(1-methyl-1H-pyrazol-4-yl)-1H-benzimidazol-1-yl]-2-thiophenecarboxamide] | < 100
C[C@@H](Oc1cc(-n2cnc3cc(F)c(Cl)cc32)sc1C(N)=O)c1cccc(OC2CCN(C)CC2)c1Cl [Example 70, 5-(6-Chloro-5-fluoro-1H-benzimidazol-1-yl)-3-[((1R)-1-{2-chloro-3-[(1-methyl-4-piperidinyl)oxy]phenyl}ethyl)oxy]-2-thiophenecarboxamide] | < 100
C[C@@H](Oc1cc(-n2cnc3cc(Cl)ccc32)sc1C(N)=O)c1ccc(F)c(OC2CCN(C)CC2)c1Cl [Example 32, 5-(5-Chloro-1H-benzimidazol-1-yl)-3-[((1R)-1-{2-chloro-4-fluoro-3-[(1-methyl-4-piperidinyl)oxy]phenyl}ethyl)oxy]-2-thiophenecarboxamide] | < 100
C[C@@H](Oc1cc(-n2cnc3ccc(CS(C)(=O)=O)cc32)sc1C(N)=O)c1cccc(OC2CCNCC2)c1Cl [Example 54, 3-({(1R)-1-[2-Chloro-3-(4-piperidinyloxy)phenyl]ethyl}oxy)-5-{6-[(methylsulfonyl)methyl]-1H-benzimidazol-1-yl}-2-thiophenecarboxamide] | < 100
